Assay results taken from patent US20230181564A1, “Potent Tetrahydroquinolone Eliminates Apicomplexan Parasites” (The University of Chicago, priority 2020, published 2023).
In brackets after ≈: the same amount, converted by molar mass.

What was measured:
T. gondii ΔRPS13 = assay: ΔRPS13 infection of interferon receptor knockout mice; assay type: in vivo, Toxoplasma gondii; conditions: 100,000 ΔRPS13; TAF day -1, JAG21 14 days, then tetracycline; vs either alone; not durable
Description: RPS13 Δ In vivo. This G1 arrested parasite persists in tissue culture for prolonged times in the absence of tetracycline (Hutson et al 2010), but in immune competent mice it cannot be rescued with teteracycline, or LNAME (L-N^G-Nitro arginine methyl ester, an analog of arginine) used as an antagonist of nitric oxide synthase (NOS) that inhibits NO production, or both together (Hutson et al. 2010).
In pilot studies, herein, interferon α receptor knockout mice that were not treated were observed following infection. At 7 and at 14 days following infection, spleen and liver were removed and immune peroxidase stained. At 14 days a group of mice were treated with anhydrotetracycline and when a subset of these mice died their spleen and liver were removed and immune peroxidase stained.
As in the pilot studies, this RPS13 Δ parasite also was used to infect interferon α receptor knockout mice in a treatment study. In this separate study, groups of mice were infected with RPS13 Δ. […] At the time they appeared to have substantial illness or at the termination of the experiment they were euthanized, tissues fixed in formalin and stained with hematoxylin and eosin or immunoperoxidase stained and parasite burden was assessed.

[1] = Kinetic/aqueous solubility in PBS pH 7.4; assay type: physicochemical
Method: PBS Sol/Toxicity pH7.4 refers to solubility of the compound in Phosphate Buffered Saline (PBS) at pH7.4. […] Parasites were RH-YFP expressing tachyzoites (Tachy) and EGS (Brady) strains. Studies of effects of inhibitors on HFF or on T.gondii tachyzoites were performed with triplicate wells in at least two biological replicate experiments. Studies of effects on bradyzoites were performed at least twice in at least two biological replicate experiments. Compounds with much less inhibition of mammalian than T. gondii cytochrome bc in the saffarine enzyme assay (indicated by **) provide potential to further develop compounds, if unanticipated toxicity occurs from JAG21.
Structure Activity Relationship (SAR) and comparison of effect on T.gondii and HFF enzyme activity. […] The MDCK-MDR1 Permeability Assay was also performed. […] These were measured by Chem Partners.

## Cc1[nH]c2c(c(=O)c1-c1ccc(Oc3ccc(OC(F)(F)F)cc3)cc1)CCCC2 [JAG021, 2-methyl-3-(4-(4-(trifluoromethoxy)phenoxy)phenyl)-5,6,7,8-tetrahydroquinolin-4-one]
T. gondii ΔRPS13
  Survival time, JAG21 combined with tafenoquine: improved time of survival
[1]; amorphous compounds
  solubility: 7 µM (≈ 2.91 µg/mL)
[1]; microcrystalline form
  Solubility of the microcrystalline form: 3.5 µM
[1]; solubility in Phosphate Buffered Saline pH 7.4, first value of cell
  PBS Sol pH7.4: 7.07 μM
